Experiment: xn = mol fraction of the nth substance listed
Settings: Liquid, Vibrating tube method

CCCCCCCCCC [decane] + CCCCCC
Settings	mass density [kg/m3]
313.18 K, 22000 kPa, x2 = 0.7524	687.87
313.18 K, 23000 kPa, x2 = 0.0456	730.42
313.18 K, 23000 kPa, x2 = 0.7524	688.65
313.18 K, 24000 kPa, x2 = 0.0456	731.08
313.18 K, 24000 kPa, x2 = 0.7524	689.4
313.18 K, 25000 kPa, x2 = 0.0456	731.73
313.18 K, 25000 kPa, x2 = 0.7524	690.14
313.21 K, 1000 kPa, x2 = 0.4968	688.23
313.21 K, 2000 kPa, x2 = 0.4968	689.24
313.21 K, 3000 kPa, x2 = 0.4968	690.26
313.21 K, 4000 kPa, x2 = 0.4968	691.19
313.21 K, 5000 kPa, x2 = 0.4968	692.15
313.21 K, 6000 kPa, x2 = 0.4968	693.12
313.21 K, 7000 kPa, x2 = 0.4968	694.03
313.21 K, 8000 kPa, x2 = 0.4968	694.95
313.21 K, 9000 kPa, x2 = 0.4968	695.84
313.21 K, 10000 kPa, x2 = 0.4968	696.74
313.21 K, 10990 kPa, x2 = 0.4968	697.6
313.21 K, 12000 kPa, x2 = 0.4968	698.47
313.21 K, 13000 kPa, x2 = 0.4968	699.32
313.21 K, 14000 kPa, x2 = 0.4968	700.16
313.21 K, 15000 kPa, x2 = 0.4968	700.95
313.21 K, 16000 kPa, x2 = 0.4968	701.76
313.21 K, 17000 kPa, x2 = 0.4968	702.55
313.21 K, 18000 kPa, x2 = 0.4968	703.34
313.21 K, 19000 kPa, x2 = 0.4968	704.08
313.21 K, 20000 kPa, x2 = 0.4968	704.83
313.21 K, 21000 kPa, x2 = 0.4968	705.58
313.21 K, 22000 kPa, x2 = 0.4968	706.34
313.21 K, 23000 kPa, x2 = 0.4968	707.05
313.21 K, 24000 kPa, x2 = 0.4968	707.76
313.21 K, 25000 kPa, x2 = 0.4968	708.45
322.99 K, 1000 kPa, x2 = 0.8991	645.29
322.99 K, 2000 kPa, x2 = 0.8991	646.4
322.99 K, 3000 kPa, x2 = 0.8991	647.52
322.99 K, 4000 kPa, x2 = 0.8991	648.64
322.99 K, 5000 kPa, x2 = 0.8991	649.64
322.99 K, 6000 kPa, x2 = 0.8991	650.89
322.99 K, 7000 kPa, x2 = 0.8991	652.02
322.99 K, 8000 kPa, x2 = 0.8991	653.14
322.99 K, 9000 kPa, x2 = 0.8991	654.27
322.99 K, 10000 kPa, x2 = 0.8991	655.38
322.99 K, 11000 kPa, x2 = 0.8991	656.46
322.99 K, 12000 kPa, x2 = 0.8991	657.57
322.99 K, 13000 kPa, x2 = 0.8991	658.64
322.99 K, 14000 kPa, x2 = 0.8991	659.7
322.99 K, 15000 kPa, x2 = 0.8991	660.74
322.99 K, 16000 kPa, x2 = 0.8991	661.75
322.99 K, 17000 kPa, x2 = 0.8991	662.76
322.99 K, 18000 kPa, x2 = 0.8991	663.71
322.99 K, 19000 kPa, x2 = 0.8991	664.67
322.99 K, 20000 kPa, x2 = 0.8991	665.59
322.99 K, 21000 kPa, x2 = 0.8991	666.49
322.99 K, 22000 kPa, x2 = 0.8991	667.35
322.99 K, 23000 kPa, x2 = 0.8991	668.19
322.99 K, 24000 kPa, x2 = 0.8991	669.02
322.99 K, 25000 kPa, x2 = 0.8991	669.89
323.14 K, 1000 kPa, x2 = 0.0456	705.56
323.14 K, 1000 kPa, x2 = 0.2185	697.1
323.14 K, 1000 kPa, x2 = 0.4968	679.98
323.14 K, 2000 kPa, x2 = 0.0456	706.52
323.14 K, 2000 kPa, x2 = 0.2185	698.02
323.14 K, 2000 kPa, x2 = 0.4968	681.03
323.14 K, 3000 kPa, x2 = 0.0456	707.47
323.14 K, 3000 kPa, x2 = 0.2185	698.97
323.14 K, 3000 kPa, x2 = 0.4968	682.14
323.14 K, 4000 kPa, x2 = 0.0456	708.4
323.14 K, 4000 kPa, x2 = 0.2185	699.88
323.14 K, 4000 kPa, x2 = 0.4968	683.21
323.14 K, 5000 kPa, x2 = 0.0456	709.32
323.14 K, 5000 kPa, x2 = 0.2185	700.82
323.14 K, 5000 kPa, x2 = 0.4968	684.24
323.14 K, 6000 kPa, x2 = 0.0456	710.22
323.14 K, 6000 kPa, x2 = 0.2185	701.75
323.14 K, 6000 kPa, x2 = 0.4968	685.27
323.14 K, 7000 kPa, x2 = 0.0456	711.11
323.14 K, 7000 kPa, x2 = 0.2185	702.67
323.14 K, 7000 kPa, x2 = 0.4968	686.28
323.14 K, 8000 kPa, x2 = 0.0456	711.99
323.14 K, 8000 kPa, x2 = 0.2185	703.58
323.14 K, 8000 kPa, x2 = 0.4968	687.29
323.14 K, 9000 kPa, x2 = 0.0456	712.86
323.14 K, 9000 kPa, x2 = 0.2185	704.45
323.14 K, 9000 kPa, x2 = 0.4968	688.27
323.14 K, 10000 kPa, x2 = 0.0456	713.72
323.14 K, 10000 kPa, x2 = 0.2185	705.32
323.14 K, 10000 kPa, x2 = 0.4968	689.22
323.14 K, 10990 kPa, x2 = 0.0456	714.56
323.14 K, 10990 kPa, x2 = 0.2185	706.19
323.14 K, 10990 kPa, x2 = 0.4968	690.14
323.14 K, 12000 kPa, x2 = 0.0456	715.39
323.14 K, 12000 kPa, x2 = 0.2185	707.05
323.14 K, 12000 kPa, x2 = 0.4968	691.07
323.14 K, 13000 kPa, x2 = 0.0456	716.21
